# Reference: US7589167B2, “ZA loops of bromodomains” (J. David Gladstone Institutes, priority 2000, dated 2009)
# Where a SMILES comes first, the peptide text is derived from it.
# Biological target: T1, P/CAF bromodomain (Homo sapiens, UniProt Q92831, P804A/P805A)
# T1 construct: poly-His (N, cleaved yes); made in house; host or cells: Escherichia coli BL21(DE3)
# T1 sequence (Q92831 719-832 P804A/P805A): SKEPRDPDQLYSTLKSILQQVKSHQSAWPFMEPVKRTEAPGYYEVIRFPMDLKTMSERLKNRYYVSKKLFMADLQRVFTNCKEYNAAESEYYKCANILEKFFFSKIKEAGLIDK
# Test: Peptide competition assay with biotinylated wild type Tat AcK50 peptide (western blot)
# Assay type: binding
# Settings: protein ~10 μM, wild type:mutant peptide 1:2
# Experimental: Peptide binding assay. […] Streptavidin agarose (10 μL) was added to mixture and the beads were washed twice in the Tris buffer with 500 mM NaCl and 0.1% NP-40. Proteins were eluted from the argarose beads in SDS buffer and separated on a 14% SDS-PAGE. The resolved proteins were transferred onto nitrocellulose membrane (Pharmacia), and the membrane was blocked overnight with 5% non-fat milk in washing buffer of 20 mM Tris, pH 7.5, plus 150 mM NaCl and 0.1% Tween-20 at 4° C. Western blotting was performed with anti-GST antibody (Sigma) and goat anti-rabbit IgG conjugated with horseradish-peroxidase (Promega) and developed by chemiluminescence. Peptide competition experiments were performed by incubating various non-biotinylated and mutant Tat peptide with the P/CAF bromodomain and the biotinylated and wild type Tat peptide. The molar ratio of the wild type and mutant Tat peptides in the mixture were kept at 1:2. The binding results were analyses by using the procedure as described above.
smiles,measurement,value
"CC(=O)NCCCC[C@H](NC(=O)[C@H](CCCCN)NC(=O)[C@H](CS)NC(=O)[C@H](Cc1ccc(O)cc1)NC(=O)[C@H](CS)NC(=O)[C@H](CC(N)=O)NC(=O)[C@@H](N)[C@@H](C)O)C(=O)N[C@@H](CS)C(=O)N[C@@H](CS)C(=O)N[C@@H](Cc1ccccc1)C(=O)N[C@@H](Cc1c[nH]cn1)C(=O)O [Tat AcK 28 peptide, TNCYCK-AcK-CCFH] (H-TNCYCKK(Ac)CCFH-OH)",competition with / binding relative to Tat AcK50 peptide (qualitative),almost no competition
